# Tested on: COS-1 cells
# Test: In vitro mammalian cytotoxicity assay (Resazurin)
row,Structure (SMILES),In Vitro Cytotoxicity
1,CCCCc1ccc(-c2cc(N(C)C)c3c(c2O)C(=O)C2=C(O)[C@]4(C#N)C(=O)C(C(N)=O)=C(O)[C@@H](N(C)C)[C@]4(N)C[C@]2(N)C3)cc1 [LY],** (toxicities less than 25 μg/mL are represented by **)
2,CCc1ccc(-c2cc(N(C)C)c3c(c2O)C(=O)C2=C(O)[C@]4(C#N)C(=O)C(C(N)=O)=C(O)[C@@H](N(C)C)[C@]4(N)C[C@]2(N)C3)cc1 [LZ],** (toxicities less than 25 μg/mL are represented by **)
3,CN(C)c1cc(-c2ccc(OC(F)(F)F)cc2)c(O)c2c1C[C@@]1(N)C[C@@]3(N)[C@H](N(C)C)C(O)=C(C(N)=O)C(=O)[C@@]3(C#N)C(O)=C1C2=O [MA],** (toxicities less than 25 μg/mL are represented by **)
4,CN(C)[C@@H]1C(O)=C(C(N)=O)C(=O)[C@@]2(C#N)C(O)=C3C(=O)c4c(O)ccc(C(=O)Cc5ccccc5)c4C[C@@]3(N)C[C@@]12N [MB],* (toxicities greater than >25 μg/ml are represented by *)
5,CN(C)c1cc(CNC(=O)NCC(C)(C)C)c(O)c2c1C[C@@]1(N)C[C@@]3(N)[C@H](N(C)C)C(O)=C(C(N)=O)C(=O)[C@@]3(C#N)C(O)=C1C2=O [MC],* (toxicities greater than >25 μg/ml are represented by *)
6,C=CCCNC(=O)NCc1cc(N(C)C)c2c(c1O)C(=O)C1=C(O)[C@]3(C#N)C(=O)C(C(N)=O)=C(O)[C@@H](N(C)C)[C@]3(N)C[C@]1(N)C2 [MD],* (toxicities greater than >25 μg/ml are represented by *)
7,CN(C)c1cc(CNC(=O)Nc2ccccc2)c(O)c2c1C[C@@]1(N)C[C@@]3(N)[C@H](N(C)C)C(O)=C(C(N)=O)C(=O)[C@@]3(C#N)C(O)=C1C2=O [ME],* (toxicities greater than >25 μg/ml are represented by *)
8,CC(C)CNC(=O)NCc1cc(N(C)C)c2c(c1O)C(=O)C1=C(O)[C@]3(C#N)C(=O)C(C(N)=O)=C(O)[C@@H](N(C)C)[C@]3(N)C[C@]1(N)C2 [MF],* (toxicities greater than >25 μg/ml are represented by *)
9,CCCCNC(=O)NCc1cc(N(C)C)c2c(c1O)C(=O)C1=C(O)[C@]3(C#N)C(=O)C(C(N)=O)=C(O)[C@@H](N(C)C)[C@]3(N)C[C@]1(N)C2 [MG],* (toxicities greater than >25 μg/ml are represented by *)
10,CCNC(=O)NCc1cc(N(C)C)c2c(c1O)C(=O)C1=C(O)[C@]3(C#N)C(=O)C(C(N)=O)=C(O)[C@@H](N(C)C)[C@]3(N)C[C@]1(N)C2 [MH],* (toxicities greater than >25 μg/ml are represented by *)
11,CN(C)c1cc(NCc2ccc3c(c2)OCO3)c(O)c2c1C[C@@]1(N)C[C@@]3(N)[C@H](N(C)C)C(O)=C(C(N)=O)C(=O)[C@@]3(C#N)C(O)=C1C2=O [MK],** (toxicities less than 25 μg/mL are represented by **)
12,CC(C)CNCc1cc(N(C)C)c2c(c1O)C(=O)C1=C(O)[C@]3(C#N)C(=O)C(C(N)=O)=C(O)[C@@H](N(C)C)[C@]3(N)C[C@]1(N)C2 [ML],* (toxicities greater than >25 μg/ml are represented by *)
13,CC(C)CNC(=N)Nc1cc(N(C)C)c2c(c1O)C(=O)C1=C(O)[C@]3(C#N)C(=O)C(C(N)=O)=C(O)[C@@H](N(C)C)[C@]3(N)C[C@]1(N)C2 [MM],* (toxicities greater than >25 μg/ml are represented by *)
14,CN(C)c1cc(CCc2ccccc2)c(O)c2c1C[C@@]1(N)C[C@@]3(N)[C@H](N(C)C)C(O)=C(C(N)=O)C(=O)[C@@]3(C#N)C(O)=C1C2=O [MN],** (toxicities less than 25 μg/mL are represented by **)
15,CCCCCC(=O)c1ccc(O)c2c1C[C@@]1(N)C[C@@]3(N)[C@H](N(C)C)C(O)=C(C(N)=O)C(=O)[C@@]3(C#N)C(O)=C1C2=O [MO],** (toxicities less than 25 μg/mL are represented by **)
16,CCCCCN(CCCCC)Cc1cc(N(C)C)c2c(c1O)C(=O)C1=C(O)[C@]3(C#N)C(=O)C(C(N)=O)=C(O)[C@@H](N(C)C)[C@]3(N)C[C@]1(N)C2 [MP],** (toxicities less than 25 μg/mL are represented by **)
17,CN(C)c1cc(NCc2ccc(OC(F)(F)F)cc2)c(O)c2c1C[C@@]1(N)C[C@@]3(N)[C@H](N(C)C)C(O)=C(C(N)=O)C(=O)[C@@]3(C#N)C(O)=C1C2=O [MQ],** (toxicities less than 25 μg/mL are represented by **)
18,CN(C)c1cc(NCC2CCCCC2)c(O)c2c1C[C@@]1(N)C[C@@]3(N)[C@H](N(C)C)C(O)=C(C(N)=O)C(=O)[C@@]3(C#N)C(O)=C1C2=O [MR],** (toxicities less than 25 μg/mL are represented by **)
19,CCCCCCOC(=O)NCc1cc(N(C)C)c2c(c1O)C(=O)C1=C(O)[C@]3(C#N)C(=O)C(C(N)=O)=C(O)[C@@H](N(C)C)[C@]3(N)C[C@]1(N)C2 [MS],** (toxicities less than 25 μg/mL are represented by **)
20,COCCOC(=O)NCc1cc(N(C)C)c2c(c1O)C(=O)C1=C(O)[C@]3(C#N)C(=O)C(C(N)=O)=C(O)[C@@H](N(C)C)[C@]3(N)C[C@]1(N)C2 [MT],* (toxicities greater than >25 μg/ml are represented by *)
21,Cc1ccc(OC(=O)NCc2cc(N(C)C)c3c(c2O)C(=O)C2=C(O)[C@]4(C#N)C(=O)C(C(N)=O)=C(O)[C@@H](N(C)C)[C@]4(N)C[C@]2(N)C3)cc1 [MU],** (toxicities less than 25 μg/mL are represented by **)

row,Structure (SMILES),In Vitro Cytotoxicity
1,CN(C)c1cc(CNC(=O)Oc2ccc(Br)cc2)c(O)c2c1C[C@@]1(N)C[C@@]3(N)[C@H](N(C)C)C(O)=C(C(N)=O)C(=O)[C@@]3(C#N)C(O)=C1C2=O [MV],** (toxicities less than 25 μg/mL are represented by **)
2,CN(C)c1cc(CNC(=O)Nc2ccc(Cl)cc2)c(O)c2c1C[C@@]1(N)C[C@@]3(N)[C@H](N(C)C)C(O)=C(C(N)=O)C(=O)[C@@]3(C#N)C(O)=C1C2=O [MW],** (toxicities less than 25 μg/mL are represented by **)
3,CN(C)c1cc(CNC(=O)NCC(Cl)(Cl)Cl)c(O)c2c1C[C@@]1(N)C[C@@]3(N)[C@H](N(C)C)C(O)=C(C(N)=O)C(=O)[C@@]3(C#N)C(O)=C1C2=O [MX],** (toxicities less than 25 μg/mL are represented by **)
4,CN(C)c1cc(CNC(=O)Nc2ccc(F)cc2)c(O)c2c1C[C@@]1(N)C[C@@]3(N)[C@H](N(C)C)C(O)=C(C(N)=O)C(=O)[C@@]3(C#N)C(O)=C1C2=O [MY],** (toxicities less than 25 μg/mL are represented by **)
5,CN(C)c1cc(CNC(=O)Nc2ccc3c(c2)OCO3)c(O)c2c1C[C@@]1(N)C[C@@]3(N)[C@H](N(C)C)C(O)=C(C(N)=O)C(=O)[C@@]3(C#N)C(O)=C1C2=O [MZ],* (toxicities greater than >25 μg/ml are represented by *)
6,CC(=O)c1ccc(NC(=O)NCc2cc(N(C)C)c3c(c2O)C(=O)C2=C(O)[C@]4(C#N)C(=O)C(C(N)=O)=C(O)[C@@H](N(C)C)[C@]4(N)C[C@]2(N)C3)cc1 [NA],* (toxicities greater than >25 μg/ml are represented by *)
7,CN(C)[C@@H]1C(O)=C(C(N)=O)C(=O)[C@@]2(C#N)C(O)=C3C(=O)c4c(O)ccc(C#CCCC#Cc5ccc(O)c6c5C[C@@]5(N)C[C@@]7(N)[C@H](N(C)C)C(O)=C(C(N)=O)C(=O)[C@@]7(C#N)C(O)=C5C6=O)c4C[C@@]3(N)C[C@@]12N [NC],* (toxicities greater than >25 μg/ml are represented by *)
8,CN(C)c1ccc(NC(=O)NCc2cc(N(C)C)c3c(c2O)C(=O)C2=C(O)[C@]4(C#N)C(=O)C(C(N)=O)=C(O)[C@@H](N(C)C)[C@]4(N)C[C@]2(N)C3)cc1 [ND],* (toxicities greater than >25 μg/ml are represented by *)
9,CN(C)c1cc(CNC(=O)Nc2ccc(OC(F)(F)F)cc2)c(O)c2c1C[C@@]1(N)C[C@@]3(N)[C@H](N(C)C)C(O)=C(C(N)=O)C(=O)[C@@]3(C#N)C(O)=C1C2=O [NE],* (toxicities greater than >25 μg/ml are represented by *)
10,CCCCCOC(=O)NCc1cc(N(C)C)c2c(c1O)C(=O)C1=C(O)[C@]3(C#N)C(=O)C(C(N)=O)=C(O)[C@@H](N(C)C)[C@]3(N)C[C@]1(N)C2 [NF],** (toxicities less than 25 μg/mL are represented by **)
11,COc1ccc(CNCc2cccc(F)c2)cc1-c1ccc(O)c2c1C[C@@]1(N)C[C@@]3(N)[C@H](N(C)C)C(O)=C(C(N)=O)C(=O)[C@@]3(C#N)C(O)=C1C2=O [NG],** (toxicities less than 25 μg/mL are represented by **)
12,COc1ccc(CNCCc2ccccc2)cc1-c1ccc(O)c2c1C[C@@]1(N)C[C@@]3(N)[C@H](N(C)C)C(O)=C(C(N)=O)C(=O)[C@@]3(C#N)C(O)=C1C2=O [NH],** (toxicities less than 25 μg/mL are represented by **)
13,CC#Cc1cc(C#CC)c2c(c1O)C(=O)C1=C(O)[C@]3(C#N)C(=O)C(C(N)=O)=C(O)[C@@H](N(C)C)[C@]3(N)C[C@]1(N)C2 [NI],** (toxicities less than 25 μg/mL are represented by **)
14,COc1ccc(CNCc2cccc(Cl)c2)cc1-c1ccc(O)c2c1C[C@@]1(N)C[C@@]3(N)[C@H](N(C)C)C(O)=C(C(N)=O)C(=O)[C@@]3(C#N)C(O)=C1C2=O [NJ],** (toxicities less than 25 μg/mL are represented by **)
15,CCOC(=O)CNCc1ccc(OC)c(-c2ccc(O)c3c2C[C@@]2(N)C[C@@]4(N)[C@H](N(C)C)C(O)=C(C(N)=O)C(=O)[C@@]4(C#N)C(O)=C2C3=O)c1 [NK],* (toxicities greater than >25 μg/ml are represented by *)
16,CCCCOCCCNCc1ccc(OC)c(-c2ccc(O)c3c2C[C@@]2(N)C[C@@]4(N)[C@H](N(C)C)C(O)=C(C(N)=O)C(=O)[C@@]4(C#N)C(O)=C2C3=O)c1 [NL],* (toxicities greater than >25 μg/ml are represented by *)
17,CN(C)[C@@H]1C(O)=C(C(N)=O)C(=O)[C@@]2(C#N)C(O)=C3C(=O)c4c(O)ccc(-c5ccc(C(=O)O)c6ccccc56)c4C[C@@]3(N)C[C@@]12N [NM],** (toxicities less than 25 μg/mL are represented by **)
18,CC(=O)C(N)c1cc(C(C)(C)C)c(O)c2c1C[C@@]1(N)C[C@@]3(N)[C@H](N(C)C)C(O)=C(C(N)=O)C(=O)[C@@]3(C#N)C(O)=C1C2=O (some centres unmarked) [NN],* (toxicities greater than >25 μg/ml are represented by *)
19,CC(C)COC(=O)NCc1ccc(O)c2c1C[C@@]1(N)C[C@@]3(N)[C@H](N(C)C)C(O)=C(C(N)=O)C(=O)[C@@]3(C#N)C(O)=C1C2=O [NO],** (toxicities less than 25 μg/mL are represented by **)
20,CN(C)[C@@H]1C(O)=C(C(N)=O)C(=O)[C@@]2(C#N)C(O)=C3C(=O)c4c(O)ccc(CNC(=O)OCC(C)(C)C)c4C[C@@]3(N)C[C@@]12N [NP],** (toxicities less than 25 μg/mL are represented by **)

# From US20050070510A1, “Substituted tetracycline compounds as synergistic antifungal agents” (Paratek Pharmaceuticals, Inc., priority 2001, published 2005)
